Data on one compound can be found in patent US20240294489A1 (Captor Therapeutics S.A., priority 2020, published 2024).

What all share (format): cell-based
One experiment deals with T1, GSPT1 (Homo sapiens, UniProt P15170+Q96SW2).
T1 construct: GSPT1 degradation in the Hep3B cell line was investigated; endogenous in cells; host or cells: Hep3B
Put plainly: GSPT1 degradation assay, Hep3B cell line. As to conditions: HEP3B cells, 24 h, read-out: % of GSPT1 protein reduction. The method, boiled down:
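Hep3B cells treated 24 h at 37 °C with compounds across a concentration range (0.25% DMSO final). GSPT1 level measured by western blot densitometry, normalized to loading control and expressed as % of DMSO control.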

A further experiment has as its target T2, Ikaros (IKZF1) (Homo sapiens, UniProt Q13422+Q96SW2).
T2 construct: Ikaros degradation in the H929 cell line was investigated; endogenous in cells; host or cells: H929
Nature of the experiment: Ikaros degradation assay, H929 cell line. As to conditions: NCI-H929, H929 cells, 24 h, read-out: % of IKZF1 protein reduction. The method, boiled down:
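Cells were exposed to test compounds over a concentration range for 24 h at 37° C, 5% CO2, then lysed in RIPA buffer. Equal protein (BCA) was resolved by SDS-PAGE and immunoblotted. Band densitometry gave the protein levels used for evaluation.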

In another experiment the test system is HEP-3B. Nature of the experiment: Cell viability, additional cell lines (CellTiter-Glo), HEP-3B. As to conditions: Homo sapiens, Hep3B, 72 h. The protocol:
(§1) Tumor cells are grown at 37° C. in a humidified atmosphere with 5% CO2 in RPMI 1640 medium, supplemented with 10% (v/v) fetal calf serum and 50 μg/ml gentamicin for up to 20 passages, and are passaged once or twice weekly.
(§2) Cells are harvested from exponential phase cultures, counted and plated in 96 well flat-bottom microtiter plates at a cell density depending on the cell line's growth rate (4,000-20,000 cells/well depending on the cell line's growth rate, up to 60,000 for hematological cancer cell lines) in RPMI 1640 medium supplemented with 10% (v/v) fetal calf serum and 50 μg/ml gentamicin (140 μl/well). Cultures are incubated at 37° C. and 5% CO2 in a humidified atmosphere. After 24 h, 10 μl of test compounds or control medium are added and left on the cells for another 72 h. Compounds are serially diluted in DMSO, transferred in cell culture medium, and added to the assay plates by using a Tecan Freedom EVO 200 robotic platform. The DMSO concentration is kept constant at 0.3% v/v across the assay plate. Viability of cells is quantified by the CellTiter-Glo® cell viability assay (Promega G8462). After incubation of cells, 100 μl of CellTiter-Glo® One Solution Assay reagent are added to each well. Plates are shaken for 2 minutes to induce cell lysis and incubated for 20 minutes prior to reading luminescence (LU) by using the EnVision® Xcite multilabel plate reader (Perkin Elmer). […]

A further experiment deals with KG-1a. Put plainly: Cell viability, additional cell lines (CellTiter-Glo), KG-1a. The settings on record: Homo sapiens, 72 h. The protocol: as §1, §2
The next experiment has as its system UOC-M1. Nature of the experiment: Cell viability, additional cell lines (CellTiter-Glo), UOC-M1. As to conditions: UOC-M1, 72 h. Here is the method:
as §1, §2

The next experiment relates to MOLT-3. Put plainly: Cell viability, additional cell lines (CellTiter-Glo), MOLT-3. The settings on record: Homo sapiens, MOLT-3, 72 h. The protocol:
as §1, §2

The test system of another experiment is MOLM-1. Put plainly: Cell viability, additional cell lines (CellTiter-Glo), MOLM-1. As to conditions: MOLM-1, 72 h. The protocol: as §1, §2
In another experiment the test system is U-266. Nature of the experiment: Cell viability, additional cell lines (CellTiter-Glo), U-266. As to conditions: Homo sapiens, U-266, 72 h; read-out: Absolute IC50. Here is the method:
as §1, §2

The next experiment relates to Hep3B cells. Put plainly: Cell survival clonogenic assay, Hep3B. The settings on record: 0.1-10 μM, crystal violet staining after 9-10 days. Here is the method:
To determine the ability of a single cell to form a colony (defined as a cluster of at least 50 cells), Kelly and Hep3B cells were maintained in RPM11640 (Kelly) or EMEM (Hep3B) medium, supplemented with penicillin/streptomycin and 10% FBS. The cells were counted and seeded on the 6-well plates, at the density of 1×10^3 cells per well, the compounds to be tested were added at the desired concentration range, and the cells were cultured at 37° C./5% CO2. After colony formation (9-10 days), the cells were washed and treated with 6.0% glutaraldehyde and 0.5% crystal violet mix for 30 min., followed by rinsing with water and drying at room temperature (RT).

[1] abbreviates: 9.5 μM, read-out: Test/Control viability at 9.5 μM.

Some results are limits rather than exact numbers.

T2 sequence (Q13422 whole entry): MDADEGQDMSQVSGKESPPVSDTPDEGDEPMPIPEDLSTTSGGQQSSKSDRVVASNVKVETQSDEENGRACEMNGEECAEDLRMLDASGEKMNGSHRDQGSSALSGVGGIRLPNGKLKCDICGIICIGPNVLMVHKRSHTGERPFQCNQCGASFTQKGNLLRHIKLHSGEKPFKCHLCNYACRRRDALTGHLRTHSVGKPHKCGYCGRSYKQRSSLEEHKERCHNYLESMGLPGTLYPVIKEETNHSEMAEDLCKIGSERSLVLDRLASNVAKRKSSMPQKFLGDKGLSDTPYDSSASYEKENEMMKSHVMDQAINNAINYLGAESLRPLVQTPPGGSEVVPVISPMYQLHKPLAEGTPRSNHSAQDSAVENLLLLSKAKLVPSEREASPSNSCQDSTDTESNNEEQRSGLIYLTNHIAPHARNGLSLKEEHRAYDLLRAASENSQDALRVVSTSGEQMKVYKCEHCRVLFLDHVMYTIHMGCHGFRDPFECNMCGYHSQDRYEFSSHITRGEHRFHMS
T2 sequence (Q96SW2 whole entry): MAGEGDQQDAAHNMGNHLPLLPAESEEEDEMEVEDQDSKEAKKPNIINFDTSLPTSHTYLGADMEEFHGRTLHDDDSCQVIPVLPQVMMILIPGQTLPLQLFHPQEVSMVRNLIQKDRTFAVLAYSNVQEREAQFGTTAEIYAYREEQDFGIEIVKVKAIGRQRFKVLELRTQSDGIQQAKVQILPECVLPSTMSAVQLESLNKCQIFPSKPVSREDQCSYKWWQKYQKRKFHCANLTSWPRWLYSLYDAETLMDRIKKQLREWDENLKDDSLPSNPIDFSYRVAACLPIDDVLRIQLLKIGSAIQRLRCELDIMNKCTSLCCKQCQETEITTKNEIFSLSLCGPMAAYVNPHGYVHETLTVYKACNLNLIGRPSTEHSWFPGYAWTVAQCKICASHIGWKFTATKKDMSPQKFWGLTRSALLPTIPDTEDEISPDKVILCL
T2 sequence (Q16531 whole entry partner): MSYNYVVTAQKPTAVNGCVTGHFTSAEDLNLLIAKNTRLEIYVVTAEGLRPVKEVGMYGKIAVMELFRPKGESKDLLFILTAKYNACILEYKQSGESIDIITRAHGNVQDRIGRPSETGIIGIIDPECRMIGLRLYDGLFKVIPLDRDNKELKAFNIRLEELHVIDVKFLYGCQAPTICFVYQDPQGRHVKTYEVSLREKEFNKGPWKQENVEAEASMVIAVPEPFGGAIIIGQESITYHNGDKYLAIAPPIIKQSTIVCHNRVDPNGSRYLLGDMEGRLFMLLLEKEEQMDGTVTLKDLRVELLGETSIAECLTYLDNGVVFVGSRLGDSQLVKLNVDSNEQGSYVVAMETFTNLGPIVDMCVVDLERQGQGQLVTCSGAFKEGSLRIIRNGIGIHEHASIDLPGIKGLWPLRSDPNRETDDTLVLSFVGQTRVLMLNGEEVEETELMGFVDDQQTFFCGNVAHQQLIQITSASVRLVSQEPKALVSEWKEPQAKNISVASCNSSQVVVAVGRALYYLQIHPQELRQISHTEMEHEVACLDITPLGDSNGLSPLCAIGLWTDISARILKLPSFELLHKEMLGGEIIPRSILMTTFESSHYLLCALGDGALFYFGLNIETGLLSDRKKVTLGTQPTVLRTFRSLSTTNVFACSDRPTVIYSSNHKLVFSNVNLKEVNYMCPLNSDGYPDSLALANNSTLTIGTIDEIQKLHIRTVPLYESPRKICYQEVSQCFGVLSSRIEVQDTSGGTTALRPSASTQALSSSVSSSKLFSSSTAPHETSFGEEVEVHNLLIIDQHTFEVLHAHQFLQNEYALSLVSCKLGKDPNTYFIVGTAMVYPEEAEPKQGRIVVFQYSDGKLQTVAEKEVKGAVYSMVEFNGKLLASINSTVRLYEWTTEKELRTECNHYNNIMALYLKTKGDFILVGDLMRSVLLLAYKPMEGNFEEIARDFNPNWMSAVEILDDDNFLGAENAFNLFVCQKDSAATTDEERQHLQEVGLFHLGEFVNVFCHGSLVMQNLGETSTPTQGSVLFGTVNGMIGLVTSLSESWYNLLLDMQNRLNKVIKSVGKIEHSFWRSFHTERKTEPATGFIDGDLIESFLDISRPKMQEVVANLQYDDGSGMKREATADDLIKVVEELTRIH
T1 sequence (P15170 whole entry): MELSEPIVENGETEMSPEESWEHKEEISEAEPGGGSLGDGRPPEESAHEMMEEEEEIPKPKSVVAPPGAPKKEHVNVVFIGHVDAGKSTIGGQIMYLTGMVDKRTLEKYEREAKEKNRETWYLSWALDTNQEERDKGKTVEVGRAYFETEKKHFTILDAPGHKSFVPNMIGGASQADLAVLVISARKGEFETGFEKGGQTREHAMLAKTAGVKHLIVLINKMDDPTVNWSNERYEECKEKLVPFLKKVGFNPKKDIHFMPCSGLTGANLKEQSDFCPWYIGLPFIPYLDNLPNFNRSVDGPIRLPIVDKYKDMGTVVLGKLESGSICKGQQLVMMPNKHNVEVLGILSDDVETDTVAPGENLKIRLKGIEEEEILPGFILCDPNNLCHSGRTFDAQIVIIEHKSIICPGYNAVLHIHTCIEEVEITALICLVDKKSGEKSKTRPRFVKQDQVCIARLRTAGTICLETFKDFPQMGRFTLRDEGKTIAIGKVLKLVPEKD
T1 sequence (Q96SW2 whole entry): as the sequence (Q96SW2 whole entry) above
T1 sequence (Q16531 whole entry partner): as the sequence (Q16531 whole entry partner) above

On to `NCc1ccc2c(c1)CN(C1CCC(=O)NC1=O)C2=O` (stereo not shown) [Compound 1, 3-(5-(aminomethyl)-1-oxoisoindolin-2-yl)piperidine-2,6-dione], for which the inhibition at 1 µM at GSPT1 (1 uM) is 80 to 100%. Besides, the figures for the inhibition at 10 µM on GSPT1 (10 uM) and on Ikaros (IKZF1) (10 uM) were 80 to 100% and 0 to 24%, respectively. Also, at Ikaros (IKZF1) (20 uM), the inhibition at 20 µM fell in the range of 0 to 24%. Besides, the viability at 9.5 µM in the experiment with HEP-3B (setting [1]) was no more than 30%; in the experiment on KG-1a (setting [1]) it was no more than 30%; in the experiment with UOC-M1 (setting [1]) it was no more than 30%; with MOLT-3 (setting [1]), no more than 60%; in the experiment on MOLM-1 (setting [1]) it was no more than 30%. Also, the IC50 with HEP-3B (read-out: Absolute IC50) is 100 to 1000 nM; in the experiment on KG-1a (read-out: Absolute IC50) it was no more than 100 nM; with UOC-M1 (read-out: Absolute IC50) it was no more than 100 nM; in the experiment with MOLT-3 (read-out: Absolute IC50), no less than 30000 nM; with MOLM-1 (read-out: Absolute IC50), no more than 100 nM; in the experiment with U-266, greater than 30000 nM. Besides, the “survival of the cells (colony formation)” value in the experiment with Hep3B cells was “in most cases inhibited”.
